Entries after “also recorded” stand apart in the source; their conditions may differ. Where two headings read alike, the source gives them in different places.
Tests used:
Acute toxicity in rats = details: rat, in vivo
Description: The preferred methanesulfonate salt of the present invention was tested for acute and sub-acute toxicity and the results obtained on rats and mice by oral, intravenous and intraperitoneal administration are set forth in the tables below.

Diuretic activity = details: in vivo
rabbit = experiment: Cardiovascular action in anesthetized rabbit; type: in vivo; details: perfusions at high dosages
Vasodilator activity = type: in vivo; details: result in words
Hemostasis activity = details: in vivo
[1] = system: blood-platelet aggregation (collagen); experiment: Inhibitor action on blood-platelet aggregation, collagen method (ex vivo after gastric tube dosing); type: in vivo, female rats of the Wistar type; details: 100 mg/Kg base equivalent at 48, 24 and 2 h before blood drawing, controls 2.53
Description: (§1) The inhibitor action on blood-platelet aggregation of the salts of the present invention was determined by two different standard methods known to the art.
The second method is that described in Ferrand J. C., Lale A.--NUMERATION ET AGREGATION PLAQUETTAIRE A L AIDE DE L AUTOCOUNTER. APPLICATION A L ETUDE DE LA TICLOPIDINE. COMM. SYMPOSIUM TECHNICON INDUSTRIE (PARIS, June 15, 1978); Ferrand J. C., Lale A.--EVALUATION EX-VIVO DE L AGREGATION PLAQUETTAIRE PAR UNE TECHNIQUE AUTOMATIQUE SUR SANG TOTAL COMM. SOCIETE FRANCAISE DE BIOLOGIE CLINIQUE (PARIS Sept. 28, 1979); and J. C. Ferrand, A. Lale, D. Aubert and G. Barthelemy--APPRECIATION QUANTITATIVE DE L' ACTIVITE ANTI-AGREGANTE DE LA TICLOPIDINE PAR VOIE AUTOMATIQUE. COMM. REUNION DE L' ASOCIATION FRANCAISE DE PHARMACOLOGISTES DIJON (May 2-3, 1980), and is referred to hereafter as the collagen method.
(§2) Groups of 10 female rats of the Wistar type were each dosed with one of the base or one of the salts of the invention and with the corresponding maleate salt of Amselem U.S. Pat. No. 4,097,482, at periods of 48 hours, 24 hours and 2 hours prior to drawing blood for testing by the ADP and collagen techniques referred to above. The active medicaments were administered by means of a gastric tube in the form of a 5% aqueous solution of gum arabic. A dosage level of 100 mg/Kg was used for the base, and for the salts an amount was used sufficient to provide the equivalent amount of the base portion of the salt.

red globules = experiment: Anti-sludge activity in vitro on red globules; type: cell-based
[2] = system: central nervous system activity of chloral and "Nembutal"; experiment: Potentiation of central nervous system activity of chloral and Nembutal; type: in vivo
[3] = system: blood-platelet aggregation (ADP); experiment: Inhibitor action on blood-platelet aggregation, ADP method (ex vivo after gastric tube dosing); type: in vivo, female rats of the Wistar type; details: 100 mg/Kg base equivalent at 48, 24 and 2 h before blood drawing
Description: as §1
The first method, involving the use of ADP (adenosine diphosphate), is that of Ferrand J. C., Gaich C., Dumas, A.--EVALUATION DE L' EFFET ANTI-AGREGANT DE LA TICLOPIDINE PAR UNE TECHNIQUE SUR SANG TOTAL. COMM. SOCIETE DE BIOLOGIE DE TOULOUSE (TOULOUSE Feb. 9, 1978), RESUME IN: REV MED TOULOUSE, 1978, 14, (SUPPL. 5) 680, referred to hereinafter as the ADP method.
as §2

[4] = system: musculotropic isolated intestine; experiment: Anti-spasmodic activity on isolated intestine
Anti-thrombotic activity = details: in vivo

Compound: CS(=O)(=O)O.N#Cc1ccccc1CN1CCc2sccc2C1 [Methanesulfonate, 5-o-Cyanobenzyl-4,5,6,7-tetrahydrothieno [3,2-c] pyridine methanesulfonate]
- LD50 at 8 h (Acute toxicity in rats; intravenous, read-out: LD50, intravenous, rats): 80.2 mg/kg
- LD50 at 8 h (Acute toxicity in rats; ip, intraperitoneal, read-out: LD50, intraperitoneal, rats): 719 mg/kg
- diuretic activity (Diuretic activity): free of diuretic activity
- cardiovascular depressive action (rabbit): cardiovascular depressive action
- peripheral and cerebral vasodilator activity (Vasodilator activity): lacks the peripheral and cerebral vasodilator activity
- vasodilator action (Vasodilator activity; listed as MS salt, methanesulfonate): without causing vasodilator action; also recorded: free of anti-inflammatory or vasodilator activity as is the MS salt
- hemostasis activity (Hemostasis activity): no hemostasis activity
- BLOOD PLATELET AGGREGATION, COLLAGEN [1]: 0.59
- anti-sludge activity in vitro (red globules): anti-sludge activity in vitro on red globules
- potentiation of central nervous system activity of Nembutal ([2]; "Nembutal" (Ca or Na pentobarbital)): does potentialize the central nervous system activity
- potentiation of central nervous system activity of chloral ([2]; chloral): does potentialize the central nervous system activity of chloral
- BLOOD PLATELET AGGREGATION, ADP, 1 mn 30 s ([3]; 1 mn 30 s, controls 0.29): 0.73
- BLOOD PLATELET AGGREGATION, ADP, 3 mn ([3]; 3 mn, controls 0.40): 0.88
- anti-spasmodic activity [4]: exhibit anti-spasmodic activity
- anti-thrombotic activity (Anti-thrombotic activity): exhibits anti-thrombotic activity

Source: patent US4400384A, “5-o-Cyanobenzyl-4,5,6,7-tetrahydrothieno [3,2-c] pyridine methanesulfonate and other novel salts thereof” (Sanofi, S.A., priority 1980, dated 1983)
